US6737383B1, “Herbicidal oxadiazolidines” (priority 1999, dated 2004)

What was measured:
surinam grass = assay: Test B pre/postemergence surinam grass; type: in vivo, Brachiaria decumbens
Method in brief: (§1)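 Test chemicals in a non-phytotoxic solvent mixture with surfactant were sprayed preemergence onto planted seeds and postemergence onto plants 2 to 18 cm tall (1- to 4-leaf stage). After twelve to sixteen days in a greenhouse, injury was visually rated against untreated controls from 0 (no effect) to 10 (complete control).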

cocklebur = assay: Test B pre/postemergence cocklebur; type: in vivo, Xanthium strumarium
Method in brief: as §1

corn = assay: Test B pre/postemergence corn; type: in vivo, Zea mays
Method in brief: as §1

crabgrass = assay: Test B pre/postemergence crabgrass; type: in vivo, Digitaria sanguinalis
Method in brief: as §1

giant foxtail = assay: Test B pre/postemergence giant foxtail; type: in vivo, Setaria faberii
Method in brief: as §1

morningglory = assay: Test B pre/postemergence morningglory; type: in vivo, Ipomoea hederacea
Method in brief: as §1

pigweed = assay: Test B pre/postemergence pigweed; type: in vivo, Amaranthus retroflexus
Method in brief: as §1

rape = assay: Test B pre/postemergence rape; type: in vivo, Brassica napus
Method in brief: as §1

sugar beet = assay: Test B pre/postemergence sugar beet; type: in vivo, Beta vulgaris
Method in brief: as §1

wheat = assay: Test B pre/postemergence wheat; type: in vivo, Triticum aestivum
Method in brief: as §1

wild oat = assay: Test B pre/postemergence wild oat; type: in vivo, Avena fatua
Method in brief: as §1

purple nutsedge = assay: Test B pre/postemergence purple nutsedge; type: in vivo, Cyperus rotundus
Method in brief: as §1

rice = assay: Test B flood test rice; type: in vivo, Oryza sativa
Method in brief: (§2)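 Plants were grown to the 2-leaf stage before treatment with test chemical, then held in a greenhouse for twelve to sixteen days. Injury was visually rated against untreated controls on a 0–10 scale, where 0 is no effect and 10 is complete control.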

smallflower flatsedge = assay: Test B flood test smallflower flatsedge; type: in vivo, Cyperus difformis
Method in brief: as §2

duck salad = assay: Test B flood test duck salad; type: in vivo, Heteranthera limosa
Method in brief: as §2

bamyardgrass = assay: Test B flood test barnyardgrass; type: in vivo, Echinochloa crus-galli
Method in brief: as §2

[1] = Postemergence, Rate 62 g/ha, scale 0 to 10, 0 is no effect, 10 is complete control
[2] = Postemergence, Rate 250 g/ha, scale 0 to 10, 0 no effect, 10 complete control
[3] = Preemergence, Rate 31 g/ha, visual rating, scale 0 to 10 (0 no effect, 10 complete control)
[4] = Preemergence, Rate 62 g/ha, scale 0 to 10, 0 is no effect, 10 is complete control
[5] = Preemergence, Rate 125 g/ha, scale 0 to 10 (0 no effect, 10 complete control)
[6] = Preemergence, Rate 250 g/ha, scale of 0 to 10 where 0 is no effect and 10 is complete control
[7] = Rate 31 g/ha, Postemergence, scale 0 to 10
[8] = Rate 125 g/ha, Postemergence, scale 0 to 10, 0 no effect, 10 complete control
[9] = Rate 125 g/ha, Postemergence section (flood test species), scale 0 to 10, 0 no effect, 10 complete control
[10] = Rate 500 g/ha, Postemergence section of Table B, 0 to 10 scale (0 no effect, 10 complete control)
[11] = flood test, listed under Postemergence, Rate 250 g/ha, scale 0 to 10, 0 no effect, 10 complete control

Compound: CCN(C(=O)n1oc(=O)n(-c2ccccc2OC)c1=O)C1CCCCC1 [Compound 29]
- B. signalgrass plant response rating (surinam grass; [1]): 0
- B. signalgrass plant response rating (surinam grass; [2]): 0
- B. signalgrass plant response rating (surinam grass; [3]): 0
- Plant response rating, B. signalgrass (surinam grass; [4]): 0
- Plant response rating, B. signalgrass (surinam grass; [5]): 0
- Plant response rating, B. signalgrass (surinam grass; [6]): 0
- B. signalgrass plant response rating (surinam grass; [7]): 0
- B. signalgrass plant response rating (surinam grass; [8]): 0
- Cocklebur plant response rating (cocklebur; [1]): 0
- Cocklebur plant response rating (cocklebur; [2]): 0
- Cocklebur plant response rating (cocklebur; [3]): 0
- Plant response rating, Cocklebur (cocklebur; [4]): 0
- Plant response rating, Cocklebur (cocklebur; [5]): 0
- Plant response rating, Cocklebur (cocklebur; [6]): 0
- Cocklebur plant response rating (cocklebur; [7]): 0
- Cocklebur plant response rating (cocklebur; [8]): 0
- Corn plant response rating (corn; [1]): 0
- Corn plant response rating (corn; [2]): 0
- Corn plant response rating (corn; [3]): 0
- Plant response rating, Corn (corn; [4]): 0
- Plant response rating, Corn (corn; [5]): 0
- Plant response rating, Corn (corn; [6]): 0
- Corn plant response rating (corn; [7]): 0
- Corn plant response rating (corn; [8]): 0
- Crabgrass plant response rating (crabgrass; [1]): 0
- Crabgrass plant response rating (crabgrass; [2]): 0
- Crabgrass plant response rating (crabgrass; [3]): 0
- Plant response rating, Crabgrass (crabgrass; [4]): 3
- Plant response rating, Crabgrass (crabgrass; [5]): 4
- Plant response rating, Crabgrass (crabgrass; [6]): 7
- Crabgrass plant response rating (crabgrass; [7]): 0
- Crabgrass plant response rating (crabgrass; [8]): 0
- Giant foxtail plant response rating (giant foxtail; [1]): 0
- Giant foxtail plant response rating (giant foxtail; [2]): 0
- Giant foxtail plant response rating (giant foxtail; [3]): 0
- Plant response rating, Giant foxtail (giant foxtail; [4]): 0
- Plant response rating, Giant foxtail (giant foxtail; [5]): 1
- Plant response rating, Giant foxtail (giant foxtail; [6]): 3
- Giant foxtail plant response rating (giant foxtail; [7]): 0
- Giant foxtail plant response rating (giant foxtail; [8]): 0
- Morningglory plant response rating (morningglory; [1]): 0
- Morningglory plant response rating (morningglory; [2]): 0
- Morningglory plant response rating (morningglory; [3]): 0
- Plant response rating, Morningglory (morningglory; [4]): 0
- Plant response rating, Morningglory (morningglory; [5]): 0
- Plant response rating, Morningglory (morningglory; [6]): 0
- Morningglory plant response rating (morningglory; [7]): 0
- Morningglory plant response rating (morningglory; [8]): 0
- Redroot pigweed plant response rating (pigweed; [1]): 0
- Redroot pigweed plant response rating (pigweed; [2]): 0
- Redroot pigweed plant response rating (pigweed; [3]): 0
- Plant response rating, Redroot pigweed (pigweed; [4]): 0
- Plant response rating, Redroot pigweed (pigweed; [5]): 0
- Plant response rating, Redroot pigweed (pigweed; [6]): 5
- Redroot pigweed plant response rating (pigweed; [7]): 0
- Redroot pigweed plant response rating (pigweed; [8]): 0
- Rape plant response rating (rape; [1]): 0
- Rape plant response rating (rape; [2]): 0
- Rape plant response rating (rape; [3]): 0
- Plant response rating, Rape (rape; [4]): 0
- Plant response rating, Rape (rape; [5]): 0
- Plant response rating, Rape (rape; [6]): 0
- Rape plant response rating (rape; [7]): 0
- Rape plant response rating (rape; [8]): 0
- Sugarbeets plant response rating (sugar beet; [1]): 0
- Sugarbeets plant response rating (sugar beet; [2]): 0
- Sugarbeets plant response rating (sugar beet; [3]): 0
- Plant response rating, Sugarbeets (sugar beet; [4]): 0
- Plant response rating, Sugarbeets (sugar beet; [5]): 0
- Plant response rating, Sugarbeets (sugar beet; [6]): 0
- Sugarbeets plant response rating (sugar beet; [8]): 0
- Wheat plant response rating (wheat; [1]): 0
- Wheat plant response rating (wheat; [2]): 0
- Wheat plant response rating (wheat; [3]): 0
- Plant response rating, Wheat (wheat; [4]): 0
- Plant response rating, Wheat (wheat; [5]): 0
- Plant response rating, Wheat (wheat; [6]): 0
- Wheat plant response rating (wheat; [8]): 0
- Wild oats plant response rating (wild oat; [1]): 0
- Wild oats plant response rating (wild oat; [2]): 0
- Wild oats plant response rating (wild oat; [3]): 0
- Plant response rating, Wild oats (wild oat; [5]): 0
- Plant response rating, Wild oats (wild oat; [6]): 0
- Wild oats plant response rating (wild oat; [8]): 0
- Nutsedge plant response rating (purple nutsedge; [1]): 0
- Nutsedge plant response rating (purple nutsedge; [2]): 0
- Nutsedge plant response rating (purple nutsedge; [3]): 0
- Plant response rating, Nutsedge (purple nutsedge; [4]): 0
- Plant response rating, Nutsedge (purple nutsedge; [5]): 0
- Plant response rating, Nutsedge (purple nutsedge; [6]): 0
- Nutsedge plant response rating (purple nutsedge; [7]): 0
- Nutsedge plant response rating (purple nutsedge; [8]): 0
- Rice plant response rating (rice; [1]): 0
- Rice plant response rating (rice; [9]): 0
- Rice plant response rating (rice; [10]): 0
- Rice plant response rating (rice; [11]): 0
- S. Flatsedge plant response rating (smallflower flatsedge; [1]): 0
- S. Flatsedge plant response rating (smallflower flatsedge; [9]): 0
- S. Flatsedge plant response rating (smallflower flatsedge; [11]): 0
- Ducksalad plant response rating (duck salad; [1]): 0
- Ducksalad plant response rating (duck salad; [9]): 0
- Ducksalad plant response rating (duck salad; [10]): 0
- Ducksalad plant response rating (duck salad; [11]): 0
- Barnyardgrass plant response rating (bamyardgrass; [1]): 0
- Barnyardgrass plant response rating (bamyardgrass; [9]): 0
- Barnyardgrass plant response rating (bamyardgrass; [10]): 0
- Barnyardgrass plant response rating (bamyardgrass; [11]): 0
